Consider 24 compounds from US20190292189A1, “LIM KINASE INHIBITORS” (VIRONGY, LLC, priority 2016, published 2019).

The target in one data set is ROCK-II (Homo sapiens, UniProt O75116). Description: ROCK-II biochemical counter-screen. (In general: Counterscreens check selectivity or assay interference.)
The target in a further data set is Limk1 (Homo sapiens, UniProt P53667). Nature of the data set: Limk1 biochemical assay (Reaction Biology, 10-dose IC50). The settings on record: for Limk1 inhibition: compared with 14a, values only in FIG. 4. The arrangement: His; purchased Reaction Biology Corporation; host or cells: insect cells.
Sequence of Limk1 (P53667 285-638): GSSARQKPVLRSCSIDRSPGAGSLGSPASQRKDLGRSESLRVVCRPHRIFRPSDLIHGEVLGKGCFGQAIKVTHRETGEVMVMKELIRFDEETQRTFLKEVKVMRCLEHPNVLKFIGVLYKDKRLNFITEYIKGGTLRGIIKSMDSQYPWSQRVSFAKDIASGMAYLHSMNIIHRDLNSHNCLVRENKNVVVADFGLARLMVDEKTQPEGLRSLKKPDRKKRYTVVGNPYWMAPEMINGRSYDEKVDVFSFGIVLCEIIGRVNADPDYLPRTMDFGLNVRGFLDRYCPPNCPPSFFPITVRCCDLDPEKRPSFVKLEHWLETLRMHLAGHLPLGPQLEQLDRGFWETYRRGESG
A short description of data set [1]: Plasma pharmacokinetics studies on rats. The settings on record: rats; for AUC (iv) / Cl (iv) / T1/2 (iv) / Yd (iv) / Cmax: iv dosing 1 mg/kg; for F (%) (po): po dosing 2 mg/kg; for Cmax: read-out: Cmax (iv). On the procedure: In vivo pharmacokinetics (PK) studies were conducted for selected compounds during the whole optimization at various stages in order to identify structural elements that are favorable for in vivo applications, and/or to evaluate the feasibility of optimized Limk inhibitors for animal studies.

Setting [2] is: Table 1, means of ≥2 experiments, read-out: IC50 (nM) ROCK-II.
The mark [3] stands for this setting: Table 1, means of ≥2 experiments, read-out: IC50 (nM) Limk1.
[4] abbreviates: Table 3, means of ≥2 experiments, read-out: IC50 (nM) ROCK-II.
Setting [5] is: Table 3, means of ≥2 experiments, read-out: IC50 (nM) Limk1.
The mark [6] stands for this setting: Table 4, means of ≥2 experiments, read-out: IC50 (nM) ROCK-II.
Setting [7] is: Table 4, means of ≥2 experiments, read-out: IC50 (nM) Limk1.

A word on the IC50: it is the point on the concentration scale where inhibition reaches its midpoint. For orientation: Cmax means the maximum level reached in the sampled fluid or tissue.

Read-outs that look alike come from different tables or passages of the source.

Sequence of ROCK-II (O75116 whole entry, species assumed): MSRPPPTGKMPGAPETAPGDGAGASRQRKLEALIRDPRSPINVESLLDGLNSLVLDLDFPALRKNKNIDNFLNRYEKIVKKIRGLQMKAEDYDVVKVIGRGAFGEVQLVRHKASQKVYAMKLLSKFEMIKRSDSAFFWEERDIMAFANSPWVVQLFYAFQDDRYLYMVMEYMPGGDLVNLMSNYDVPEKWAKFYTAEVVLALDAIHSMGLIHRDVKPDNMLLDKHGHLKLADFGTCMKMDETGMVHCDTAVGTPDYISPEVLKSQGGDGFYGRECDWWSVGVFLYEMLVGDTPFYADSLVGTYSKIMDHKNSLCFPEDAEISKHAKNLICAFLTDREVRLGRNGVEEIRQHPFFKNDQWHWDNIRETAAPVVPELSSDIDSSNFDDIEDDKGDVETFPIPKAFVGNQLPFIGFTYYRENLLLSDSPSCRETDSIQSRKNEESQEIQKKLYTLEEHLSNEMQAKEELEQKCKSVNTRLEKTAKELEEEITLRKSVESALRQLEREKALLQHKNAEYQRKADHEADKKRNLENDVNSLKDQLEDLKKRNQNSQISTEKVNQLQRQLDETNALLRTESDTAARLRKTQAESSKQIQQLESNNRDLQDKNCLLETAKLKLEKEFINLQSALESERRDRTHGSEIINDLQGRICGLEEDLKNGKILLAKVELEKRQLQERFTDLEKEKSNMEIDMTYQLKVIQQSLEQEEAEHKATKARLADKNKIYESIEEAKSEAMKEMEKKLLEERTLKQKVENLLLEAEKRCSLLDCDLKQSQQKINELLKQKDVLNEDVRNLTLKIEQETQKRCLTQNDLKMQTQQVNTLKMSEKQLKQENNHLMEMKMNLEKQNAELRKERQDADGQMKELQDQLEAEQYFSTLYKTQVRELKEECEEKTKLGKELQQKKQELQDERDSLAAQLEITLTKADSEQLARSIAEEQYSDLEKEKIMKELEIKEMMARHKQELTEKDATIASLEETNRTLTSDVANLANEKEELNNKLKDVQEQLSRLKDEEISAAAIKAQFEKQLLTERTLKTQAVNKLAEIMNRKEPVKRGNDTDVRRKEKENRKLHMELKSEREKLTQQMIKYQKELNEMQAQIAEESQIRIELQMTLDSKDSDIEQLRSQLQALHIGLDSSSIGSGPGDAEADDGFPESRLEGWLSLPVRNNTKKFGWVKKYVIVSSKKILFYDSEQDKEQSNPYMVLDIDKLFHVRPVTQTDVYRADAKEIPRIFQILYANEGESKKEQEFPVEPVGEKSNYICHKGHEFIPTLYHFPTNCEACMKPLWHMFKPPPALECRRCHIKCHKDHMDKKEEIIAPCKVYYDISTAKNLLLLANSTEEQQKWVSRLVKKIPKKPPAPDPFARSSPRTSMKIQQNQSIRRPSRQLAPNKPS

`CC(C)NC(=O)c1cccc(NC(=O)Nc2ccc(-c3ncnc4[nH]ccc34)cc2)c1` [Compound 3, 3-(3-(4-(7H-pyrrolo[2,3-d]pyrimidin-4-yl)phenyl)ureido)-N-isopropylbenzamide]: the IC50 is 1360 nM on ROCK-II (setting [2]) and 201 nM on Limk1 (read-out: Limk1 IC50).

Consider `CC(C)NC(=O)c1cccc(NC(=O)Nc2ccc(-c3cn[nH]c3)cc2)c1` [Compound 7a, 3-(3-(4-(1H-pyrazol-4-yl)phenyl)ureido)-N-isopropylbenzamide], for which the IC50 on ROCK-II (setting [2]) was 45 nM; at Limk1 (setting [3]) it was more than 10000 nM.

In the case of `CC(C)NC(=O)c1cccc(NC(=O)Nc2ccc(-c3ccncc3)cc2)c1` [Compound 7b, N-Isopropyl-3-(3-(4-(pyridin-4-yl)phenyl)ureido)benzamide], the IC50 at ROCK-II (setting [2]) is 90 nM; at Limk1 (setting [3]) it was more than 10000 nM.

For the compound `CC(C)NC(=O)c1cccc(NC(=O)Nc2ccc(-c3ccnc(N)n3)cc2)c1` [Compound 7c, 3-(3-(4-(2-Aminopyrimidin-4-yl)phenyl)ureido)-N-isopropylbenzamide], the IC50 on ROCK-II (setting [2]) is 166 nM; on Limk1 (setting [3]) it was more than 10000 nM.

Take `Cc1c[nH]c2ncnc(-c3ccc(NC(=O)Nc4cccc(C(=O)NC(C)C)c4)cc3)c12` [Compound 7g, N-Isopropyl-3-(3-(4-(5-methyl-7H-pyrrolo[2,3-d]pyrimidin-4-yl)phenyl)ureido)benzamide]: in data set [1], the “AUC (iv)” value came to 4.3 µM·h, the “Cl (iv)” value is listed as 9.0 mL/min/kg, the “T1/2 (iv)” value is 1.0 h and the “Yd (iv)” value is given as 0.3 L/kg. In data set [1], the “F (%) (po)” value came out at 0% and the Cmax came out at 8.5 µM.

Consider `Cc1cc2c(-c3ccc(NC(=O)Nc4cccc(C(=O)NC(C)C)c4)cc3)ncnc2[nH]1` [Compound 7h, N-Isopropyl-3-(3-(4-(6-methyl-7H-pyrrolo[2,3-d]pyrimidin-4-yl)phenyl)ureido)benzamide], for which the IC50 at ROCK-II (setting [2]) is more than 10000 nM; on Limk1 (setting [3]) it was 80 nM.

`Cc1c[nH]c2ncnc(-c3ccc(NC(=O)Nc4cccc(C(=O)NC(C)C)c4)c(C(F)(F)F)c3)c12` [Compound 7j, N-Isopropyl-3-(3-(4-(5-methyl-7H-pyrrolo[2,3-d]pyrimidin-4-yl)-2-(trifluoromethyl)phenyl)ureido)-benzamide]: the IC50 is 976 nM on ROCK-II (read-out: ROCK-II IC50) and 60 nM at Limk1 (read-out: Limk1 IC50).

As for `Cc1c[nH]c2ncnc(-c3ccc(NC(=O)Nc4cccc(C(=O)NC(C)C)c4)c(OCCN(C)C)c3)c12` [Compound 7l, 3-(3-(2-(2-(Dimethylamino)ethoxy)-4-(5-methyl-7H-pyrrolo[2,3-d]pyrimidin-4-yl)phenyl)ureido)-N-isopropylbenzamide], the IC50 at ROCK-II (Table 2, means of ≥2 experiments, read-out: IC50 (nM) ROCK-II) is 7080 nM; on Limk1 (Table 2, means of ≥2 experiments, read-out: IC50 (nM) Limk1) it was 710 nM.

Turning to `Cc1c[nH]c2ncnc(-c3ccc(NC(=O)Nc4ccccc4)cc3)c12` [Compound 10a, 1-(4-(5-Methyl-7H-pyrrolo[2,3-d]pyrimidin-4-yl)phenyl)-3-phenylurea], the IC50 at ROCK-II (read-out: ROCK-II IC50) came out at 2360 nM. Besides, in data set [1], the “AUC (iv)” value is 14.3 µM·h, the “Cl (iv)” value is recorded as 3.4 mL/min/kg, the “T1/2 (iv)” value was 1.6 h and the “Yd (iv)” value came to 0.5 L/kg. Moreover, in data set [1], the “F (%) (po)” value is listed as 16% and the Cmax came out at 7 µM. Further, the IC50 at Limk1 (read-out: Limk1 IC50) amounted to 142 nM.

Take `Cc1c[nH]c2ncnc(-c3ccc(NC(=O)Nc4cccc(F)c4)cc3)c12` [Compound 10b, 1-(3-Fluorophenyl)-3-(4-(5-methyl-7H-pyrrolo[2,3-d]pyrimidin-4-yl)phenyl)urea]: the IC50 on ROCK-II (setting [4]) was 5420 nM; on Limk1 (read-out: Limk1 IC50), 315 nM.

On to `COc1ccccc1NC(=O)Nc1ccc(-c2ncnc3[nH]cc(C)c23)cc1` [Compound 10c, 1-(2-Methoxyphenyl)-3-(4-(5-methyl-7H-pyrrolo[2,3-d]pyrimidin-4-yl)phenyl)urea], for which the IC50 came out at 6650 nM at ROCK-II (setting [4]) and 283 nM on Limk1 (read-out: Limk1 IC50).

In the case of `COc1cccc(NC(=O)Nc2ccc(-c3ncnc4[nH]cc(C)c34)cc2)c1` [Compound 10d, 1-(3-Methoxyphenyl)-3-(4-(5-methyl-7H-pyrrolo[2,3-d]pyrimidin-4-yl)phenyl)urea], the IC50 at ROCK-II (setting [4]) worked out at 2570 nM; on Limk1 (setting [5]) it was 75 nM.

With `COc1ccc(NC(=O)Nc2ccc(-c3ncnc4[nH]cc(C)c34)cc2)cc1` [Compound 10e, 1-(4-Methoxyphenyl)-3-(4-(5-methyl-7H-pyrrolo[2,3-d]pyrimidin-4-yl)phenyl)urea], the IC50 at ROCK-II (setting [4]) and at ROCK-II (read-out: ROCK-II IC50) was more than 10000 nM each time.

As to `Cc1c[nH]c2ncnc(-c3ccc(NC(=O)Nc4nccs4)cc3)c12` [Compound 10f, 1-[4-(5-Methyl-7H-pyrrolo[2,3-d]pyrimidin-4-yl)-phenyl]-3-thiazol-2-yl-urea], the IC50 amounted to 2290 nM at ROCK-II (setting [4]) and 203 nM on Limk1 (setting [5]).

For the compound `Cc1c[nH]c2ncnc(-c3ccc(NC(=O)Nc4ccccn4)cc3)c12` [Compound 10g, 1-[4-(5-Methyl-7H-pyrrolo[2,3-d]pyrimidin-4-yl)-phenyl]-3-pyridin-2-yl-urea], the half-maximal inhibitory concentration (IC50) was more than 10000 nM on ROCK-II (setting [4]) and 4510 nM at Limk1 (setting [5]).

As for `COc1ccc(NC(=O)N(C)c2ccc(-c3ncnc4[nH]cc(C)c34)cc2)cc1` [Compound 14a, 3-(4-Methoxyphenyl)-1-methyl-1-(4-(5-methyl-7H-pyrrolo[2,3-d]pyrimidin-4-yl)phenyl)urea], on Limk1 (read-out: Limk1 IC50), the IC50 came to 1090 nM.

`COc1ccc(NC(=O)N(CCN2CCCC2)c2ccc(-c3ncnc4[nH]cc(C)c34)cc2)cc1` [Compound 14b, 3-(4-Methoxyphenyl)-1-(4-(5-methyl-7H-pyrrolo[2,3-d]pyrimidin-4-yl)phenyl)-1-(2-(pyrrolidin-1-yl)ethyl)urea]: at Limk1, the “Limk1 inhibition” value was “even lower Limk1 inhibitions”.

Turning to `COc1ccc(NC(=O)N(CCN2CCCCC2)c2ccc(-c3ncnc4[nH]cc(C)c34)cc2)cc1` [Compound 14c, 3-(4-Methoxyphenyl)-1-(4-(5-methyl-7H-pyrrolo[2,3-d]pyrimidin-4-yl)phenyl)-1-(2-(piperidin-1-yl)ethyl)urea], the “Limk1 inhibition” value at Limk1 is given as “even lower Limk1 inhibitions”.

As to `Cc1c[nH]c2ncnc(-c3ccc(NC(=O)N(CCO)c4ccccc4F)cc3)c12` [Compound 18c, 1-(2-Fluorophenyl)-1-(2-hydroxyethyl)-3-(4-(5-methyl-7H-pyrrolo[2,3-d]pyrimidin-4-yl)phenyl)urea], the IC50 at ROCK-II (setting [6]) is 1600 nM.

As to `Cc1c[nH]c2ncnc(-c3ccc(NC(=O)N(CCO)c4cccc(F)c4)cc3)c12` [Compound 18d, 1-(3-Fluorophenyl)-1-(2-hydroxyethyl)-3-(4-(5-methyl-7H-pyrrolo[2,3-d]pyrimidin-4-yl)phenyl)urea], the IC50 at ROCK-II (setting [6]) was found to be 1900 nM.

As for `Cc1ccccc1N(CCO)C(=O)Nc1ccc(-c2ncnc3[nH]cc(C)c23)cc1` [Compound 18i, 1-(2-Hydroxyethyl)-3-(4-(5-methyl-7H-pyrrolo[2,3-d]pyrimidin-4-yl)phenyl)-1-o-tolylurea], the IC50 on ROCK-II (setting [6]) was more than 10000 nM.

`Cc1cccc(N(CCO)C(=O)Nc2ccc(-c3ncnc4[nH]cc(C)c34)cc2)c1` [Compound 18j, 1-(2-Hydroxyethyl)-3-(4-(5-methyl-7H-pyrrolo[2,3-d]pyrimidin-4-yl)phenyl)-1-m-tolylurea]: the results for the IC50 at ROCK-II (setting [6]) and at Limk1 (setting [7]) were 8940 nM and 151 nM, respectively.

Regarding `COc1ccc(N(CCN)C(=O)Nc2ccc(-c3ncnc4[nH]cc(C)c34)cc2)cc1` [Compound 18o, 1-(2-Aminoethyl)-1-(4-methoxyphenyl)-3-(4-(5-methyl-7H-pyrrolo[2,3-d]pyrimidin-4-yl)phenyl)urea], in data set [1], the “AUC (iv)” value worked out at 1.1 µM·h, the “Cl (iv)” value was determined as 36.0 mL/min/kg, the “T1/2 (iv)” value turned out to be 4.6 h and the “Yd (iv)” value is given as 6.0 L/kg. In addition, in data set [1], the “F (%) (po)” value is on record as 0% and the Cmax was determined as 2.2 µM. Besides, the IC50 at Limk1 (setting [7]) worked out at 27 nM.

Turning to `COc1ccc(N(CCN(C)C)C(=O)Nc2ccc(-c3ncnc4[nH]cc(C)c34)cc2)cc1` [Compound 18q, 1-(2-(Dimethylamino)ethyl)-1-(4-methoxyphenyl)-3-(4-(5-methyl-7H-pyrrolo[2,3-d]pyrimidin-4-yl)phenyl)urea], the IC50 on ROCK-II (setting [6]) and on ROCK-II (read-out: ROCK-II IC50) was more than 10000 nM each time.
